Measurements reported in ChEMBL document CHEMBL1135279, “Design and synthesis of lignostilbene-alpha,beta-dioxygenase inhibitors” (Bioorg Med Chem Lett, 2002).

Legend:
[1] = biological target: T1, Lignostilbene alpha, beta-dioxygenase (Sphingomonas paucimobilis, UniProt O87171); experiment: Tested for the inhibition of Lignostilbene-alpha, beta-dioxygenase (LSD)
T1 sequence (O87171 whole entry): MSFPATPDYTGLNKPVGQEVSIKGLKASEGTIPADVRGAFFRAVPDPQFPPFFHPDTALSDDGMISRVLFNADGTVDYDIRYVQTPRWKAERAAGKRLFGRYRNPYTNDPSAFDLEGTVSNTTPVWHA

[2] = biological target: T1, Lignostilbene alpha, beta-dioxygenase; experiment: Inhibitory concentration against Lignostilbene-alpha, beta-dioxygenase (LSD) was determined in 2 mL of 50 mM […] buffer containing 4 microg enzyme/mL at 30 degree C
[3] = biological target: T1, Lignostilbene alpha, beta-dioxygenase; experiment: Inhibitory concentration against Lignostilbene alpha beta-dioxygenase (LSD) was determined in 2 mL of 50 mM […] buffer containing 4 microg enzyme/mL at 30 degree C

Structure (SMILES) | Ki [1] | IC50 [2] | IC50 [3]
Oc1ccc(/C(F)=C/c2ccccc2)cc1 | 0.98 µM | 3 µM | –
C/C(=C/c1ccccc1)c1ccccc1 | – | – | 22 µM
C/C(=C/c1ccc(O)cc1)c1ccccc1 | – | – | 7 µM
C=C(C)c1ccc(O)cc1 | – | 12 µM | –

Next, values leading:

Ki [1] | IC50 [2] | IC50 [3] | Structure (SMILES)
– | > 100 µM | – | C/C(=C\c1ccccc1)c1ccccc1
– | > 100 µM | – | F/C(=C\c1ccccc1)c1ccccc1
– | 15 µM | – | C/C(=C\c1ccc(O)cc1)c1ccccc1
